Measurements reported in PubChem BioAssay (NCI).
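Briefly, cells in 96-well plates were exposed to five compound concentrations for 48 h, and endpoints were estimated by linear interpolation. GI50 = concentration required for 50% inhibition of growth. TGI marks complete inhibition of growth.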

What was measured:
Assay in all cases: inhibition of tumour cell growth, NCI panel, 48 h
NCI-H226 lung = test system: NCI-H226 lung
BT-549 breast = test system: BT-549 breast
SW-620 colon = test system: SW-620 colon
M14 melanoma = test system: M14 melanoma
SK-OV-3 ovarian = test system: SK-OV-3 ovarian
UACC-62 melanoma = test system: UACC-62 melanoma
CAKI-1 renal = test system: CAKI-1 renal
DU-145 prostate = test system: DU-145 prostate
HCT-15 colon = test system: HCT-15 colon
NCI-H522 lung = test system: NCI-H522 lung
OVCAR-4 ovarian = test system: OVCAR-4 ovarian
CCRF-CEM leukemia = test system: CCRF-CEM leukemia
K-562 leukemia = test system: K-562 leukemia
COLO 205 colon = test system: COLO 205 colon
HS 578T breast = test system: HS 578T breast
T-47D breast = test system: T-47D breast
NCI-H460 lung = test system: NCI-H460 lung
A498 renal = test system: A498 renal
SK-MEL-2 melanoma = test system: SK-MEL-2 melanoma
RPMI-8226 leukemia = test system: RPMI-8226 leukemia
SNB-75 CNS = test system: SNB-75 CNS
HL-60(TB) leukemia = test system: HL-60(TB) leukemia
786-0 renal = test system: 786-0 renal
OVCAR-5 ovarian = test system: OVCAR-5 ovarian
PC-3 prostate = test system: PC-3 prostate
MCF7 breast = test system: MCF7 breast
UACC-257 melanoma = test system: UACC-257 melanoma
SK-MEL-5 melanoma = test system: SK-MEL-5 melanoma
ACHN renal = test system: ACHN renal
HCC-2998 colon = test system: HCC-2998 colon
SF-539 CNS = test system: SF-539 CNS
MALME-3M melanoma = test system: MALME-3M melanoma
HOP-92 NSCLC = test system: HOP-92 NSCLC
MDA-MB-231 breast = test system: MDA-MB-231 breast
SN12C renal = test system: SN12C renal
OVCAR-8 ovarian = test system: OVCAR-8 ovarian
RXF 393 renal = test system: RXF 393 renal
HT29 colon = test system: HT29 colon
KM12 colon = test system: KM12 colon
SR leukemia = test system: SR leukemia
EKVX NSCLC = test system: EKVX NSCLC
NCI-H23 lung = test system: NCI-H23 lung
SF-268 CNS = test system: SF-268 CNS
NCI/ADR-RES ovarian = test system: NCI/ADR-RES ovarian
U251 CNS = test system: U251 CNS
MDA-MB-435 = test system: MDA-MB-435
SNB-19 CNS = test system: SNB-19 CNS
UO-31 renal = test system: UO-31 renal
SF-295 CNS = test system: SF-295 CNS
TK-10 renal = test system: TK-10 renal
A549 NSCLC = test system: A549 NSCLC
OVCAR-3 ovarian = test system: OVCAR-3 ovarian
MOLT-4 leukemia = test system: MOLT-4 leukemia
LOX IMVI melanoma = test system: LOX IMVI melanoma
IGROV1 ovarian = test system: IGROV1 ovarian
SK-MEL-28 melanoma = test system: SK-MEL-28 melanoma
HCT-116 colon = test system: HCT-116 colon
HOP-62 NSCLC = test system: HOP-62 NSCLC

In the case of `CCNCCCn1c2c(c3cc(OC)c(OC)cc3c1=O)C(=O)c1cc(OC)cnc1-2`, the GI50 (NCI-H226 lung) is reported as 1280 nM, the TGI (NCI-H226 lung) is reported as > 35800 nM and the GI50 (BT-549 breast) is reported as 1320 nM. For the same compound, the TGI (BT-549 breast) was 25500 nM, the GI50 (SW-620 colon) was 358 nM and the TGI (SW-620 colon) was 19300 nM. For the same compound, the GI50 (M14 melanoma) was 517 nM, the TGI (M14 melanoma) was 25800 nM and the GI50 (SK-OV-3 ovarian) was 471 nM. The TGI (SK-OV-3 ovarian) was 2060 nM, the GI50 (UACC-62 melanoma) was 388 nM and the TGI (UACC-62 melanoma) was 8210 nM. The GI50 (CAKI-1 renal) was 339 nM, the TGI (CAKI-1 renal) was > 50000 nM and the GI50 (DU-145 prostate) was 639 nM. For the same compound, the TGI (DU-145 prostate) was 15000 nM, the GI50 (HCT-15 colon) was 1390 nM and the TGI (HCT-15 colon) was 19700 nM. For the same compound, the GI50 (NCI-H522 lung) was 197 nM, the TGI (NCI-H522 lung) was 19600 nM and the GI50 (OVCAR-4 ovarian) was 2560 nM. The TGI (OVCAR-4 ovarian) was 18700 nM, the GI50 (CCRF-CEM leukemia) was 122 nM and the TGI (CCRF-CEM leukemia) was 23300 nM. The GI50 (K-562 leukemia) was 256 nM, the TGI (K-562 leukemia) was 22900 nM and the GI50 (COLO 205 colon) was 1380 nM. For the same compound, the TGI (COLO 205 colon) was > 53500 nM, the GI50 (HS 578T breast) was > 43900 nM and the TGI (HS 578T breast) was > 70300 nM. For the same compound, the GI50 (T-47D breast) was 711 nM, the TGI (T-47D breast) was > 100000 nM and the GI50 (NCI-H460 lung) was 153 nM. For the same compound, the TGI (NCI-H460 lung) was 5110 nM, the GI50 (A498 renal) was 28000 nM and the TGI (A498 renal) was > 58200 nM. For the same compound, the GI50 (SK-MEL-2 melanoma) was > 38900 nM, the TGI (SK-MEL-2 melanoma) was > 75900 nM and the GI50 (RPMI-8226 leukemia) was 440 nM. It also gave a TGI (RPMI-8226 leukemia) of 4860 nM, a GI50 (SNB-75 CNS) of 474 nM and a TGI (SNB-75 CNS) of 3450 nM. The GI50 (HL-60(TB) leukemia) was 1040 nM, the TGI (HL-60(TB) leukemia) was 11800 nM and the GI50 (786-0 renal) was 718 nM. It also gave a TGI (786-0 renal) of 6400 nM, a GI50 (OVCAR-5 ovarian) of 3890 nM and a TGI (OVCAR-5 ovarian) of 35100 nM. For the same compound, the GI50 (PC-3 prostate) was 1840 nM, the TGI (PC-3 prostate) was 26800 nM and the GI50 (MCF7 breast) was 120 nM. The TGI (MCF7 breast) was 13000 nM, the GI50 (UACC-257 melanoma) was 1980 nM and the TGI (UACC-257 melanoma) was > 55000 nM. The GI50 (SK-MEL-5 melanoma) was 794 nM, the TGI (SK-MEL-5 melanoma) was 3300 nM and the GI50 (ACHN renal) was 341 nM. For the same compound, the TGI (ACHN renal) was 29300 nM, the GI50 (HCC-2998 colon) was 1670 nM and the TGI (HCC-2998 colon) was 29500 nM. It also gave a GI50 (SF-539 CNS) of 432 nM, a TGI (SF-539 CNS) of 2140 nM and a GI50 (MALME-3M melanoma) of 10900 nM. For the same compound, the TGI (MALME-3M melanoma) was 36600 nM, the GI50 (HOP-92 NSCLC) was 4030 nM and the TGI (HOP-92 NSCLC) was > 60300 nM. The GI50 (MDA-MB-231 breast) was 2660 nM, the TGI (MDA-MB-231 breast) was 20300 nM and the GI50 (SN12C renal) was 837 nM. For the same compound, the TGI (SN12C renal) was > 51400 nM, the GI50 (OVCAR-8 ovarian) was 1200 nM and the TGI (OVCAR-8 ovarian) was 20100 nM. It also gave a GI50 (RXF 393 renal) of 1030 nM, a TGI (RXF 393 renal) of 4770 nM and a GI50 (HT29 colon) of 462 nM. For the same compound, the TGI (HT29 colon) was 2770 nM, the GI50 (KM12 colon) was 3330 nM and the TGI (KM12 colon) was 50000 nM. The GI50 (SR leukemia) was 68.5 nM, the TGI (SR leukemia) was 3290 nM and the GI50 (EKVX NSCLC) was 15700 nM. For the same compound, the TGI (EKVX NSCLC) was > 58600 nM, the GI50 (NCI-H23 lung) was 736 nM and the TGI (NCI-H23 lung) was 7180 nM. For the same compound, the GI50 (SF-268 CNS) was 765 nM, the TGI (SF-268 CNS) was > 63100 nM and the GI50 (NCI/ADR-RES ovarian) was 1040 nM. The TGI (NCI/ADR-RES ovarian) was 27200 nM, the GI50 (U251 CNS) was 267 nM and the TGI (U251 CNS) was 9160 nM. The GI50 (MDA-MB-435) was 1990 nM, the TGI (MDA-MB-435) was > 55600 nM and the GI50 (SNB-19 CNS) was 529 nM. The TGI (SNB-19 CNS) was > 51300 nM, the GI50 (UO-31 renal) was 615 nM and the TGI (UO-31 renal) was > 47200 nM. The GI50 (SF-295 CNS) was 159 nM, the TGI (SF-295 CNS) was 11200 nM and the GI50 (TK-10 renal) was > 50400 nM. For the same compound, the TGI (TK-10 renal) was > 66400 nM, the GI50 (A549 NSCLC) was 2100 nM and the TGI (A549 NSCLC) was 33800 nM. For the same compound, the GI50 (OVCAR-3 ovarian) was 1400 nM, the TGI (OVCAR-3 ovarian) was 18700 nM and the GI50 (MOLT-4 leukemia) was 95.3 nM. It also gave a TGI (MOLT-4 leukemia) of 8080 nM, a GI50 (LOX IMVI melanoma) of 313 nM and a TGI (LOX IMVI melanoma) of 2320 nM. For the same compound, the GI50 (IGROV1 ovarian) was 1020 nM, the TGI (IGROV1 ovarian) was > 52800 nM and the GI50 (SK-MEL-28 melanoma) was 48500 nM. For the same compound, the TGI (SK-MEL-28 melanoma) was > 63100 nM, the GI50 (HCT-116 colon) was 376 nM and the TGI (HCT-116 colon) was 6590 nM. For the same compound, the GI50 (HOP-62 NSCLC) was 213 nM and the TGI (HOP-62 NSCLC) was 2640 nM.
